Source: ChEMBL document CHEMBL5678809, “Preclinical characterization of GLPG0634, a selective inhibitor of JAK1, for the treatment of inflammatory diseases” (J Immunol, 2013)
Active and inactive are the calls of the source. The calls are words filed in the database; no cut-off is given here.

Columns and labels:
[1] = molecular target: Serine/threonine-protein kinase PAK 2 (Homo sapiens) (UniProt Q13177); test: Inhibition of PAK2 (unknown origin) at 1 uM relative to control
[2] = molecular target: Serine/threonine-protein kinase WNK3 (Homo sapiens) (UniProt Q9BYP7); test: Inhibition of WNK3 (unknown origin) at 1 uM relative to control
BaF3 = test: Antiproliferative activity against mouse BaF3 cells assessed as IL-3-induced inhibition of cell growth incubated for 40 hrs; format: functional, cell-based; settings: BaF3, 40 h
[3] = molecular target: Serine/threonine-protein kinase Chk1 (Homo sapiens) (UniProt O14757); test: Inhibition of CHK1 (unknown origin) at 1 uM relative to control
[4] = molecular target: Serine/threonine-protein kinase 17A (Homo sapiens) (UniProt Q9UEE5); test: Inhibition of DRAK1 (unknown origin) at 1 uM relative to control
[5] = molecular target: Mitogen-activated protein kinase 11 (Homo sapiens) (UniProt Q15759); test: Inhibition of SAPK2b (unknown origin) at 1 uM relative to control
[6] = molecular target: Serine/threonine-protein kinase MARK1 (Homo sapiens) (UniProt Q9P0L2); test: Inhibition of MARK1 (unknown origin) at 1 uM relative to control
[7] = molecular target: Epidermal growth factor receptor (Homo sapiens) (UniProt P00533); test: Inhibition of EGFR (unknown origin) at 1 uM relative to control
[8] = molecular target: Homeodomain-interacting protein kinase 2 (Homo sapiens, UniProt Q9H2X6); test: Inhibition of HIPK2 (unknown origin)
[9] = molecular target: Tyrosine-protein kinase Lyn (Homo sapiens, UniProt P07948); test: Inhibition of LYNA (unknown origin)
[10] = molecular target: FKBP12A/mTOR (Homo sapiens) (UniProt P62942+P42345); test: Inhibition of mTOR/FKBP12 (unknown origin) at 1 uM relative to control; format: protein-complex assay
Mus musculus [11] = test: Antiarthritic activity against collagen-induced arthritis DBA/1J mouse model assessed as reduction in Mx1 expression in paw at 50 mg/kg, po measured for 2 weeks by RT-PCR analysis; format: functional, organism-based
[12] = molecular target: Dual specificity tyrosine-phosphorylation-regulated kinase 2 (Homo sapiens) (UniProt Q92630); test: Inhibition of DYRK2 (unknown origin) at 1 uM relative to control
[13] = AUC (0 to 24 hrs) in Sprague-Dawley rat at 5 mg/kg, po measured upto 24 hrs by LC-MS analysis; format: ADME, organism-based; settings: in vivo
Rattus norvegicus = test: Antiarthritic activity against collagen-induced arthritis Dark Agouti rat model assessed as reduction in clinical score at 0.1 mg/kg, po measured after day 5; format: functional, organism-based; settings: time 5.0 day
[14] = molecular target: Protein kinase C delta type (Homo sapiens) (UniProt Q05655); test: Inhibition of PKCd (unknown origin) at 1 uM relative to control
[15] = molecular target: Interleukin-1 receptor-associated kinase 1 (Homo sapiens) (UniProt P51617); test: Inhibition of IRAK1 (unknown origin) at 1 uM relative to control
Mus musculus [16] = test: Antiarthritic activity against collagen-induced arthritis DBA/1J mouse model assessed as reduction in infiltration of F4/80+ macrophage cells in paw at 50 mg/kg, po administered twice daily for 14 days by immunohistochemistry analysis; format: functional, organism-based; settings: time 14.0 day
[17] = molecular target: Proto-oncogene tyrosine-protein kinase Src (Homo sapiens) (UniProt P12931); test: Inhibition of SRC (unknown origin) at 1 uM relative to control
Mus musculus [18] = test: Antiarthritic activity against collagen-induced arthritis DBA/1J mouse model assessed as reduction in TNFalpha expression at 50 mg/kg, po measured for 4 hrs; format: functional, organism-based
[19] = molecular target: Serine/threonine-protein kinase Sgk2 (Homo sapiens) (UniProt Q9HBY8); test: Inhibition of SGK2 (unknown origin) at 1 uM relative to control
[20] = molecular target: Dual specificity mitogen-activated protein kinase kinase 1 (Homo sapiens) (UniProt Q02750); test: Inhibition of MEK1 (unknown origin) at 1 uM relative to control
[21] = molecular target: Mitogen-activated protein kinase kinase kinase 9 (Homo sapiens) (UniProt P80192); test: Inhibition of MLK1 (unknown origin) at 1 uM relative to control
[22] = molecular target: Serine/threonine-protein kinase TAO1 (Homo sapiens) (UniProt Q7L7X3); test: Inhibition of TAO1 (unknown origin) at 1 uM relative to control
[23] = molecular target: Vascular endothelial growth factor receptor 1 (Homo sapiens, UniProt P17948); test: Inhibition of Flt1 (unknown origin) at 1 uM relative to control
[24] = AUC (0 to 24 hrs) in Sprague-Dawley rat at 1 mg/kg, iv measured upto 8 hrs by LC-MS analysis; format: ADME, organism-based; settings: in vivo
[25] = molecular target: Dual specificity protein kinase CLK2 (Homo sapiens) (UniProt P49760); test: Inhibition of CLK2 (unknown origin) at 1 uM relative to control
[26] = molecular target: Mitogen-activated protein kinase 12 (Homo sapiens, UniProt P53778); test: Inhibition of MAPK12 (unknown origin)
[27] = molecular target: Serine/threonine-protein kinase STK11 (Homo sapiens) (UniProt Q15831); test: Inhibition of LKB1 (unknown origin) at 1 uM relative to control
Mus musculus [28] = test: Antiarthritic activity against collagen-induced arthritis DBA/1J mouse model assessed as reduction in RANKL expression at 50 mg/kg, po measured for 4 hrs; format: functional, organism-based
[29] = molecular target: Mast/stem cell growth factor receptor Kit (Homo sapiens, UniProt P10721); test: Inhibition of cKIT (unknown origin)
[30] = molecular target: Ephrin type-B receptor 4 (Homo sapiens) (UniProt P54760); test: Inhibition of EphB4 (unknown origin) at 1 uM relative to control
[31] = molecular target: Serine/threonine-protein kinase Nek2 (Homo sapiens) (UniProt P51955); test: Inhibition of NEK2 (unknown origin) at 1 uM relative to control
[32] = molecular target: Serine/threonine-protein kinase VRK2 (Homo sapiens) (UniProt Q86Y07); test: Inhibition of VRK2 (unknown origin) at 1 uM relative to control
[33] = molecular target: Focal adhesion kinase 1 (Homo sapiens) (UniProt Q05397); test: Inhibition of FAK (unknown origin) at 1 uM relative to control
[34] = molecular target: Serine/threonine-protein kinase N2 (Homo sapiens) (UniProt Q16513); test: Inhibition of PRK2 (unknown origin) at 1 uM relative to control
[35] = molecular target: Tyrosine-protein kinase Fgr (Homo sapiens) (UniProt P09769); test: Inhibition of Fgr (unknown origin) at 1 uM relative to control
[36] = molecular target: Ribosomal protein S6 kinase beta-2 (Homo sapiens) (UniProt Q9UBS0); test: Inhibition of p70S6K2 (unknown origin) at 1 uM relative to control
[37] = molecular target: Angiopoietin-1 receptor (Homo sapiens) (UniProt Q02763); test: Inhibition of Tie2 (unknown origin) at 1 uM relative to control
[38] = Volume of distribution at steady state in CD-1 mouse at 1 mg/kg, iv measured upto 8 hrs by LC-MS analysis; format: ADME, organism-based; settings: in vivo, read-out: Vdss

Focal adhesion kinase 1 (Homo sapiens), sequence (Q05397 2-1052 limits assumed): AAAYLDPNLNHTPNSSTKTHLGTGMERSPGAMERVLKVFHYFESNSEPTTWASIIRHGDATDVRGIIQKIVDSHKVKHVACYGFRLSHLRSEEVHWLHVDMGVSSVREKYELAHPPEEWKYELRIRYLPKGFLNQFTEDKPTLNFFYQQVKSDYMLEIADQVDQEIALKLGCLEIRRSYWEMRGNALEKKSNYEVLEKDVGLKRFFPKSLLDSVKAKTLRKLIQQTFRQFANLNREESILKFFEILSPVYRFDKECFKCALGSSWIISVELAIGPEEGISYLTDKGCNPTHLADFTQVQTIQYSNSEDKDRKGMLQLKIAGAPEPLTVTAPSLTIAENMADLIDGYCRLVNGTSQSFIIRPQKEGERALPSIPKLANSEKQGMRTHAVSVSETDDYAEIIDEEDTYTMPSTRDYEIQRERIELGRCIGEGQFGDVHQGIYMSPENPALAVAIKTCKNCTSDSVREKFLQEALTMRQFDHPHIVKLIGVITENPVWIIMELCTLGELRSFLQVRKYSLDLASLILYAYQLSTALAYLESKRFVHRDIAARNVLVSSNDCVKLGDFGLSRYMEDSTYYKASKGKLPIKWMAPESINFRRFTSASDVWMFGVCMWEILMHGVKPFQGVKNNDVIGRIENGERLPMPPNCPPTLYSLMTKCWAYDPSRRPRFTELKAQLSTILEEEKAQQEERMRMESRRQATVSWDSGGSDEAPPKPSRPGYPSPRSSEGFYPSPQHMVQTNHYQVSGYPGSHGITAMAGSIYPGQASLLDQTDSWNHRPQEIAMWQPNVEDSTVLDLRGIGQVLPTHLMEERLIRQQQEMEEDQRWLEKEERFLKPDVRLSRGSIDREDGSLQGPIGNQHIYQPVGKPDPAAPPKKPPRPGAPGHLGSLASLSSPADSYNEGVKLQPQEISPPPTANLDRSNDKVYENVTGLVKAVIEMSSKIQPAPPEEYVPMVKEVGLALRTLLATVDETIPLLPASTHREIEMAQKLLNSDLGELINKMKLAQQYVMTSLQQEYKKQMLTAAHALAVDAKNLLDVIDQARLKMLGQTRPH
Angiopoietin-1 receptor (Homo sapiens), sequence (Q02763 whole entry): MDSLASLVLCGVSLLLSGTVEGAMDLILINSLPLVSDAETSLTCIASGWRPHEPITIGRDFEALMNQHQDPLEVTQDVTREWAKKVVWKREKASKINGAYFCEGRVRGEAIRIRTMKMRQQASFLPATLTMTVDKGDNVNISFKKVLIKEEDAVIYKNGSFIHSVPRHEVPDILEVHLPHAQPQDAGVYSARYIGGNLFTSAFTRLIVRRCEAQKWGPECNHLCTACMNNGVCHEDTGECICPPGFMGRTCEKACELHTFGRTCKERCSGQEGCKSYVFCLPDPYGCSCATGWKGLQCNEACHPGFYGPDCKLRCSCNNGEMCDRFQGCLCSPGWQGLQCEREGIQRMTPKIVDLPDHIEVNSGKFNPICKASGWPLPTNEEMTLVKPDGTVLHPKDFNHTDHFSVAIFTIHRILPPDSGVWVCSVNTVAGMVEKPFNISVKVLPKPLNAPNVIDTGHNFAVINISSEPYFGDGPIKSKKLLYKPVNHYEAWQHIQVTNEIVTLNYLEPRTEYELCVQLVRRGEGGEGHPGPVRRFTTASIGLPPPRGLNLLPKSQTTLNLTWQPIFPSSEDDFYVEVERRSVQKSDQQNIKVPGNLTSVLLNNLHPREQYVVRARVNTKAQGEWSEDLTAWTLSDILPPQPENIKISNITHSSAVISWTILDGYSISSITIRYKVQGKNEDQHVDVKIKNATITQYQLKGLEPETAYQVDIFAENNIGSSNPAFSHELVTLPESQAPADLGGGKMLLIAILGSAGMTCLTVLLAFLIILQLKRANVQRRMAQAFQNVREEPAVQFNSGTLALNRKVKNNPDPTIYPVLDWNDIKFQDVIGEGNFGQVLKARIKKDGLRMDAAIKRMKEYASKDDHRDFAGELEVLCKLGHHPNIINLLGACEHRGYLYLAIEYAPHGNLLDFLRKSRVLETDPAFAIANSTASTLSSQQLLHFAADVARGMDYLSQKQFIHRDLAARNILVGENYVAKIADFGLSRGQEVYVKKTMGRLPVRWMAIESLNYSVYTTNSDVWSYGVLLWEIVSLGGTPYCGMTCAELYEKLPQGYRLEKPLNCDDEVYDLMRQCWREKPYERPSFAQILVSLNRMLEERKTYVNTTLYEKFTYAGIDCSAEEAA
Serine/threonine-protein kinase PAK 2 (Homo sapiens), sequence (Q13177 whole entry): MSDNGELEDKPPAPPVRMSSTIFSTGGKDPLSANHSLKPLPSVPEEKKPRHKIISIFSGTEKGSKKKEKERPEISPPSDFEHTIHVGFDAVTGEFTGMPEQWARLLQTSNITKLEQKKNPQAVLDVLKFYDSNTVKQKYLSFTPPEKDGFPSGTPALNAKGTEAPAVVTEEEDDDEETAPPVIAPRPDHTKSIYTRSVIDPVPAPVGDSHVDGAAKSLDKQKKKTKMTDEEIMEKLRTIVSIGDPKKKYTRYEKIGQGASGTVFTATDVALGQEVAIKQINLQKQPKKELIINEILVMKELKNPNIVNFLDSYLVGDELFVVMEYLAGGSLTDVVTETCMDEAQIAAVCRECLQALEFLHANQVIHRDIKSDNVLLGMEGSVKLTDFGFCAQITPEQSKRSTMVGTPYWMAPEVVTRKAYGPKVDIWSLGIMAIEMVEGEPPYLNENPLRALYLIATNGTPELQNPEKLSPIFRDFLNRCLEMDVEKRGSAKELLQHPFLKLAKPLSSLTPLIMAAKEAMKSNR
Mast/stem cell growth factor receptor Kit, sequence (P10721 whole entry): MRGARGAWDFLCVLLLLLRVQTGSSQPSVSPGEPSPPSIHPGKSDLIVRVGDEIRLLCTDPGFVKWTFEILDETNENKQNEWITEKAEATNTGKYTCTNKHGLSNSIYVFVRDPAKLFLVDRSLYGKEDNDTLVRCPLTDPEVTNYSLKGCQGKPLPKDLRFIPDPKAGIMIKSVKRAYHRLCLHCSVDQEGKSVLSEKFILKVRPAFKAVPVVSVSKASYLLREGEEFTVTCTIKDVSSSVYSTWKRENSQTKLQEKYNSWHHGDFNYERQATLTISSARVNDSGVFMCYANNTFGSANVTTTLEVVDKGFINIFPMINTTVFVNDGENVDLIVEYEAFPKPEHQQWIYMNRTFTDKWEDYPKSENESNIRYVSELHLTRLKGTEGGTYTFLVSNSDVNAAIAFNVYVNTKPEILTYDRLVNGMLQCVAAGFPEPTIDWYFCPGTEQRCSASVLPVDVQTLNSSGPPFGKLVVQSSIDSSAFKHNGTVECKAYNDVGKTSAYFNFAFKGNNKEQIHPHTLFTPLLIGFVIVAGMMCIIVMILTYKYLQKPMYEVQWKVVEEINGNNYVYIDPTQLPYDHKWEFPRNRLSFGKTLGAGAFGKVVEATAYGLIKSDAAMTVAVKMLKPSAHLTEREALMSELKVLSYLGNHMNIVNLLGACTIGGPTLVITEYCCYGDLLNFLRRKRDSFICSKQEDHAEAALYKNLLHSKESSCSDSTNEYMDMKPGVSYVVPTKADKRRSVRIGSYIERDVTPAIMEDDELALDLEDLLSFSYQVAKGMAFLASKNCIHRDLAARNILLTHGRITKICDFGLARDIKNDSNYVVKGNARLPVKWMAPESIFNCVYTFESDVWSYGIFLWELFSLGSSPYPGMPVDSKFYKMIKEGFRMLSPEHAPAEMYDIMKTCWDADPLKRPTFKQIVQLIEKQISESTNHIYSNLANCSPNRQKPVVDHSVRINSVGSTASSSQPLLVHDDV
Serine/threonine-protein kinase 17A (Homo sapiens), sequence (Q9UEE5 whole entry): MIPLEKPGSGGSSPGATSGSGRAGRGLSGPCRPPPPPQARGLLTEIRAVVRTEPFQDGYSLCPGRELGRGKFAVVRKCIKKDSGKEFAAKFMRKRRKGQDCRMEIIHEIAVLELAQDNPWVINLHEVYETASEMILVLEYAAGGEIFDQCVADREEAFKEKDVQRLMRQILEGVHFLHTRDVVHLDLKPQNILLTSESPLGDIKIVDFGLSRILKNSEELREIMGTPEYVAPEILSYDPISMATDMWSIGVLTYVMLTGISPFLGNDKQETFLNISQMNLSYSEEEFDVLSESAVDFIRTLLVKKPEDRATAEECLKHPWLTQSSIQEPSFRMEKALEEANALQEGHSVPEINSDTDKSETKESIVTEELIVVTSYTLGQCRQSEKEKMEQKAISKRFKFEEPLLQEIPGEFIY
Proto-oncogene tyrosine-protein kinase Src (Homo sapiens), sequence (P12931 2-536 limits assumed): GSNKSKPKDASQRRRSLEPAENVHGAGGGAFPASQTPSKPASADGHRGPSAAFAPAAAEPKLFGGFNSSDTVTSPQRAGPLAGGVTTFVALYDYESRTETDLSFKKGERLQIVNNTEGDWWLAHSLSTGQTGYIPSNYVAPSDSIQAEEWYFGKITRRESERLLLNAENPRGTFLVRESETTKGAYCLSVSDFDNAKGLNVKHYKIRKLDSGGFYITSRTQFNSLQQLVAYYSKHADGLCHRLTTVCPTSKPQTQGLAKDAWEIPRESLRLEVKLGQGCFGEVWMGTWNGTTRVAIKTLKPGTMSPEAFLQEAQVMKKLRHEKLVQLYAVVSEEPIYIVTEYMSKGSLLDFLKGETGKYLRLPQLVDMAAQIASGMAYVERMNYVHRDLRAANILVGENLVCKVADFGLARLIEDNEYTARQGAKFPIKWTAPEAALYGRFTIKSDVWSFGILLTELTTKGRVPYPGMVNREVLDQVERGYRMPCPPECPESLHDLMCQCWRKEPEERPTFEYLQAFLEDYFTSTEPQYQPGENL
Mitogen-activated protein kinase 12, sequence (P53778 whole entry): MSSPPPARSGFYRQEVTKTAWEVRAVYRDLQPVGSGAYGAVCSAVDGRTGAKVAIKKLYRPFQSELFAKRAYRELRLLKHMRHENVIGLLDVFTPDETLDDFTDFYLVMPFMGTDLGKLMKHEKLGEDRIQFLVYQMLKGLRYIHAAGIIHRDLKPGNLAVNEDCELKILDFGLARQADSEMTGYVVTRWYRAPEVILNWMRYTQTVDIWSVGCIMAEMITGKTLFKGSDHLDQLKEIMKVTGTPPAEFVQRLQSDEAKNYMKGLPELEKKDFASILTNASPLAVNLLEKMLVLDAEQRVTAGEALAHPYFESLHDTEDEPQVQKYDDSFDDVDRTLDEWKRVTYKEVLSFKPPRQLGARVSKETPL

inhibition [1]: 3% | inhibition [2]: -2% | IC50 (BaF3; read-out: IC50): 4.55 µM | IC50 (BaF3; read-out: pIC50 (converted)): 4.57 µM | inhibition [3]: 10% | inhibition [4]: 26% | inhibition [5]: -4% | inhibition [6]: 7% | inhibition [7]: -5% | IC50 [8]: > 10 µM | IC50 [9]: > 10 µM | inhibition [10]: 3% | inhibition [12]: -1% | AUC [13]: 1.68 µg·h/mL | inhibition [14]: -10% | inhibition [15]: 2% | inhibition [17]: -10% | inhibition [19]: -4% | inhibition [20]: -3% | inhibition [21]: 1% | inhibition [22]: -4% | inhibition [23]: 37% | AUC [24]: 0.739 µg·h/mL | inhibition [25]: 10% | IC50 [26]: > 10 µM | inhibition [27]: -5% | IC50 [29]: > 10 µM | inhibition [30]: 5% | inhibition [31]: -10% | inhibition [32]: 2% | inhibition [33]: 23% | inhibition [34]: -8% | inhibition [35]: 5% | inhibition [36]: -6% | inhibition [37]: -2% | Vd [38]: 6 L/kg
Compound: O=C(Nc1nc2cccc(-c3ccc(CN4CCS(=O)(=O)CC4)cc3)n2n1)C1CC1 [FILGOTINIB]
Activity (Mus musculus [11]): Active | Activity (Rattus norvegicus): Active | Activity (Mus musculus [16]): Active | Activity (Mus musculus [18]): Active | Activity (Mus musculus [28]): Active
